Data: patent US12077503B2, “Substituted cyclic amides and their use as herbicides” (FMC CORPORATION, priority 2015, dated 2024)

How the values were obtained:
Type in all cases: in vivo
[1] = tested on: ragweed (common ragweed, Ambrosia elatior); assay: Test A preemergence; conditions: for Plant response rating, Ragweed: 125 g ai/ha, preemergence, 0 to 100 scale (0 no effect, 100 complete control); for Ragweed plant response rating (0 to 100 scale, 0 is no effect, 100 is complete control): Preemergence, 500 g ai/ha, visual injury approx. 10 d
How it was run: (§1)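 Each rating is a visual injury score from 0 to 100 given about 10 d after treatment, judged against untreated controls kept alongside in the greenhouse. In loam soil–sand blend, seeds got a preemergence directed soil spray, while postemergence plants were 2 to 10 cm tall at spraying.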

[2] = tested on: barnyardgrass (Echinochloa crus-galli); assay: Test A preemergence; conditions: for Plant response rating, Barnyardgrass: 125 g ai/ha, preemergence, 0 to 100 scale (0 no effect, 100 complete control); for Barnyardgrass plant response rating (0 to 100 scale, 0 is no effect, 100 is complete control): Preemergence, 500 g ai/ha, visual injury approx. 10 d
How it was run: as §1

[3] = tested on: giant foxtail (Setaria faberii); assay: Test A preemergence; conditions: for Plant response rating, Foxtail, Giant: 125 g ai/ha, preemergence, 0 to 100 scale (0 no effect, 100 complete control); for Foxtail, Giant plant response rating (0 to 100 scale, 0 is no effect, 100 is complete control): Preemergence, 500 g ai/ha, visual injury approx. 10 d
How it was run: as §1

Kochia (Kochia scoparia) [4] = assay: Test A preemergence; conditions: for Plant response rating, Kochia: 125 g ai/ha, preemergence, 0 to 100 scale (0 no effect, 100 complete control); for Kochia plant response rating (0 to 100 scale, 0 is no effect, 100 is complete control): Preemergence, 500 g ai/ha, visual injury approx. 10 d
How it was run: as §1

[5] = tested on: pigweed (Amaranthus retroflexus); assay: Test A preemergence; conditions: for Plant response rating, Pigweed: 125 g ai/ha, preemergence, 0 to 100 scale (0 no effect, 100 complete control); for Pigweed plant response rating (0 to 100 scale, 0 is no effect, 100 is complete control): Preemergence, 500 g ai/ha, visual injury approx. 10 d
[6] = tested on: ryegrass, Italian (Italian ryegrass, Lolium multiflorum); assay: Test A preemergence; conditions: for Plant response rating, Ryegrass, Italian: 125 g ai/ha, preemergence, 0 to 100 scale (0 no effect, 100 complete control); for Ryegrass, Italian plant response rating (0 to 100 scale, 0 is no effect, 100 is complete control): Preemergence, 500 g ai/ha, visual injury approx. 10 d
How it was run: as §1

[7] = tested on: ducksalad (Heteranthera limosa); assay: Test B flooded paddy test; conditions: Flood, 0 to 100 scale where 0 is no effect and 100 is complete control, 13 to 15 d
How it was run: (§2)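 Rating scale 0–100 (visual, vs untreated controls) after a 13–15 d greenhouse period; application to the flood layer, 3 cm above soil and maintained; plants at 2-leaf stage when treated.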

[8] = tested on: sedge, umbrella (small-flower umbrella sedge, Cyperus difformis); assay: Test B flooded paddy test; conditions: Flood, 0 to 100 scale where 0 is no effect and 100 is complete control, 13 to 15 d
How it was run: as §2

rice (Oryra sativa) = assay: Test B flooded paddy test; conditions: Flood, 0 to 100 scale where 0 is no effect and 100 is complete control, 13 to 15 d
How it was run: as §2

[9] = tested on: barnyardgrass (Echinochloa crus-galli); assay: Test B flooded paddy test; conditions: Flood, 0 to 100 scale where 0 is no effect and 100 is complete control, 13 to 15 d
How it was run: as §2

[10] = tested on: Galium (catchweed bedstraw, Galium aparine); assay: Test A postemergence; conditions: postemergence; for Galium plant response rating: 125 g ai/ha, visual injury rating on 0 to 100 scale (0 no effect, 100 complete control), approx. 10 d; for Plant response rating, Galium: 500 g ai/ha, 0 to 100 scale, 0 no effect, 100 complete control
How it was run: as §1

[11] = tested on: ragweed (common ragweed, Ambrosia elatior); assay: Test A postemergence; conditions: postemergence; for Ragweed plant response rating: 125 g ai/ha, visual injury rating on 0 to 100 scale (0 no effect, 100 complete control), approx. 10 d; for Plant response rating, Ragweed: 500 g ai/ha, 0 to 100 scale, 0 no effect, 100 complete control
How it was run: as §1

[12] = tested on: barnyardgrass (Echinochloa crus-galli); assay: Test A postemergence; conditions: postemergence; for Barnyardgrass plant response rating: 125 g ai/ha, visual injury rating on 0 to 100 scale (0 no effect, 100 complete control), approx. 10 d; for Plant response rating, Barnyardgrass: 500 g ai/ha, 0 to 100 scale, 0 no effect, 100 complete control
How it was run: as §1

[13] = tested on: giant foxtail (Setaria faberii); assay: Test A postemergence; conditions: postemergence; for Foxtail, Giant plant response rating: 125 g ai/ha, visual injury rating on 0 to 100 scale (0 no effect, 100 complete control), approx. 10 d; for Plant response rating, Foxtail, Giant: 500 g ai/ha, 0 to 100 scale, 0 no effect, 100 complete control
How it was run: as §1

[14] = tested on: blackgrass (Alopecurus myosuroides); assay: Test A postemergence; conditions: postemergence; for Blackgrass plant response rating: 125 g ai/ha, visual injury rating on 0 to 100 scale (0 no effect, 100 complete control), approx. 10 d; for Plant response rating, Blackgrass: 500 g ai/ha, 0 to 100 scale, 0 no effect, 100 complete control
How it was run: as §1

Kochia (Kochia scoparia) [15] = assay: Test A postemergence; conditions: postemergence; for Kochia plant response rating: 125 g ai/ha, visual injury rating on 0 to 100 scale (0 no effect, 100 complete control), approx. 10 d; for Plant response rating, Kochia: 500 g ai/ha, 0 to 100 scale, 0 no effect, 100 complete control
How it was run: as §1

corn (Zea mays) = assay: Test A postemergence; conditions: postemergence; for Corn plant response rating: 125 g ai/ha, visual injury rating on 0 to 100 scale (0 no effect, 100 complete control), approx. 10 d; for Plant response rating, Corn: 500 g ai/ha, 0 to 100 scale, 0 no effect, 100 complete control
How it was run: as §1

[16] = tested on: wheat (Triticum aestivum); assay: Test A postemergence; conditions: postemergence; for Wheat plant response rating: 125 g ai/ha, visual injury rating on 0 to 100 scale (0 no effect, 100 complete control), approx. 10 d; for Plant response rating, Wheat: 500 g ai/ha, 0 to 100 scale, 0 no effect, 100 complete control
How it was run: as §1

[17] = tested on: pigweed (Amaranthus retroflexus); assay: Test A postemergence; conditions: postemergence; for Pigweed plant response rating: 125 g ai/ha, visual injury rating on 0 to 100 scale (0 no effect, 100 complete control), approx. 10 d; for Plant response rating, Pigweed: 500 g ai/ha, 0 to 100 scale, 0 no effect, 100 complete control
How it was run: as §1

[18] = tested on: ryegrass, Italian (Italian ryegrass, Lolium multiflorum); assay: Test A postemergence; conditions: postemergence; for Ryegrass, Italian plant response rating: 125 g ai/ha, visual injury rating on 0 to 100 scale (0 no effect, 100 complete control), approx. 10 d; for Plant response rating, Ryegrass, Italian: 500 g ai/ha, 0 to 100 scale, 0 no effect, 100 complete control
How it was run: as §1

| Structure (SMILES) | Plant response rating, Ragweed [1] | Ragweed plant response rating (0 to 100 scale, 0 is no effect, 100 is complete control) [1] | Plant response rating, Barnyardgrass [2] | Barnyardgrass plant response rating (0 to 100 scale, 0 is no effect, 100 is complete control) [2] | Plant response rating, Foxtail, Giant [3] | Foxtail, Giant plant response rating (0 to 100 scale, 0 is no effect, 100 is complete control) [3] | Plant response rating, Kochia (Kochia (Kochia scoparia) [4]) | Kochia plant response rating (0 to 100 scale, 0 is no effect, 100 is complete control) (Kochia (Kochia scoparia) [4]) | Plant response rating, Pigweed [5] | Pigweed plant response rating (0 to 100 scale, 0 is no effect, 100 is complete control) [5] | Plant response rating, Ryegrass, Italian [6] | Ryegrass, Italian plant response rating (0 to 100 scale, 0 is no effect, 100 is complete control) [6] | Galium plant response rating [10] | Plant response rating, Galium [10] | Ragweed plant response rating [11] | Plant response rating, Ragweed [11] | Barnyardgrass plant response rating [12] | Plant response rating, Barnyardgrass [12] | Foxtail, Giant plant response rating [13] | Plant response rating, Foxtail, Giant [13] | further results |
| --- | --- | --- | --- | --- | --- | --- | --- | --- | --- | --- | --- | --- | --- | --- | --- | --- | --- | --- | --- | --- | --- |
| O=C1NCC(c2cccc(OC(F)F)c2)C1C(=O)Nc1ccccc1OC(F)F (stereo not drawn) [Compound 427] | 0 | 40 | 40 | 90 | 90 | 90 | 30 | 80 | 0 | 40 | 0 | 30 | 40 | 50 | 0 | 20 | 60 | 80 | 50 | 80 | Plant response rating, Ducksalad ([7]; 500 g ai/ha): 100; Plant response rating, Sedge, Umbrella ([8]; 500 g ai/ha): 0; Plant response rating, Rice (rice (Oryra sativa); 500 g ai/ha): 0; Plant response rating, Barnyardgrass ([9]; 500 g ai/ha): 40; Blackgrass plant response rating [14]: 20; Plant response rating, Blackgrass [14]: 40; Kochia plant response rating (Kochia (Kochia scoparia) [15]): 0; Plant response rating, Kochia (Kochia (Kochia scoparia) [15]): 20; Corn plant response rating (corn (Zea mays)): 0; Plant response rating, Corn (corn (Zea mays)): 20; Wheat plant response rating [16]: 0; Plant response rating, Wheat [16]: 20; Pigweed plant response rating [17]: 0; Plant response rating, Pigweed [17]: 0; Ryegrass, Italian plant response rating [18]: 0; Plant response rating, Ryegrass, Italian [18]: 20 |
| CC(=O)Oc1cccc(C2CNC(=O)C2C(=O)Nc2cccc(F)c2F)c1 (stereo not drawn) [Compound 432] | 0 | 0 | 30 | 40 | 0 | 0 | 0 | 0 | 0 | 0 | 0 | 0 | 0 | 0 | 0 | 0 | 20 | 30 | 40 | 30 | Plant response rating, Ducksalad ([7]; 250 g ai/ha): 0; Plant response rating, Sedge, Umbrella ([8]; 250 g ai/ha): 0; Plant response rating, Rice (rice (Oryra sativa); 250 g ai/ha): 15; Plant response rating, Barnyardgrass ([9]; 250 g ai/ha): 20; Blackgrass plant response rating [14]: 0; Plant response rating, Blackgrass [14]: 0; Kochia plant response rating (Kochia (Kochia scoparia) [15]): 0; Plant response rating, Kochia (Kochia (Kochia scoparia) [15]): 0; Corn plant response rating (corn (Zea mays)): 0; Plant response rating, Corn (corn (Zea mays)): 0; Wheat plant response rating [16]: 0; Plant response rating, Wheat [16]: 0; Pigweed plant response rating [17]: 0; Plant response rating, Pigweed [17]: 0; Ryegrass, Italian plant response rating [18]: 0; Plant response rating, Ryegrass, Italian [18]: 20 |
| CN1CC(c2ccc(Cl)cc2)C(C(=O)Nc2ccccc2S(C)(=O)=O)C1=O (stereo not drawn) [Compound 435] | 20 | 70 | 80 | 90 | 90 | 90 | 60 | 80 | 60 | 80 | 0 | 20 | 50 | 60 | 40 | 60 | 80 | 90 | 80 | 80 | Plant response rating, Ducksalad ([7]; 250 g ai/ha): 90; Plant response rating, Sedge, Umbrella ([8]; 250 g ai/ha): 0; Plant response rating, Rice (rice (Oryra sativa); 250 g ai/ha): 0; Plant response rating, Barnyardgrass ([9]; 250 g ai/ha): 60; Blackgrass plant response rating [14]: 30; Plant response rating, Blackgrass [14]: 50; Kochia plant response rating (Kochia (Kochia scoparia) [15]): 20; Plant response rating, Kochia (Kochia (Kochia scoparia) [15]): 50; Corn plant response rating (corn (Zea mays)): 0; Plant response rating, Corn (corn (Zea mays)): 20; Wheat plant response rating [16]: 0; Plant response rating, Wheat [16]: 60; Pigweed plant response rating [17]: 20; Plant response rating, Pigweed [17]: 50; Ryegrass, Italian plant response rating [18]: 40; Plant response rating, Ryegrass, Italian [18]: 40 |
